The values that follow come from patent US7629318B2, “Immunosuppressant compounds, methods and uses related thereto” (priority 2002, dated 2009).

Several values for one entry are separate records, joined by “and”; a condition that tells them apart may be missing. Equal values may be shown once. Read-outs that look alike come from different tables or passages of the source. Numbered stars: 1 amine (or outer) side, 2 acyl side, 3 side chain; on linkers, the order of the positions; unused ones are H or OH. Square brackets hold non-standard residues; d marks the D form. Peptide text beside a SMILES is read from it. * marks the point of attachment. ξ: configuration not given here. Gly(1-amidinopiperidin-4-yl) = N=C(N)N1CCC([C@H](N)C(=O)O)CC1; X1 = CC(C)c1oc([C@H](CO)N[*:1])nc1C(=O)[*:2]; Pro(3R-Ph) = O=C(O)[C@H]1NCC[C@@H]1c1ccccc1; Met(O) = CS(=O)CC[C@H](N)C(=O)O; Tic = O=C(O)[C@@H]1Cc2ccccc2CN1; Cha = N[C@@H](CC1CCCCC1)C(=O)O; NMe(benzyl) = CN(Cc1ccccc1)*; ξDisc = O=C(O)C1NCc2ccccc21; Nle = CCCC[C@H](N)C(=O)O; X3 = OCCOCCN*

Series [1] is described as follows: Stability of compounds in mouse blood plasma. The series is classed as in vitro ADME. In a few lines:
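Compounds at 5 μM final in rat, mouse or human plasma, incubated at 37 °C and sampled at 0, 6 and 24 h. Proteins precipitated with acetonitrile and the supernatant dried and reconstituted in 50% acetonitrile/0.1% TFA. PBS controls run for unstable compounds.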

In series [2] the test system is T-cell proliferation, lymph node cells of chimeric 0401-IE transgenic mice. Particulars: for Immunsupressive assays DR4-LN (Max) % Inhibition: maximal inhibition; for IC50: read-out: Immunsupressive assays DR4-LN (IC50); for Immunsupressive assays DR4-LN (Max) % Inhibition / IC50: DR4-LN. In a few lines: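 Antigen-primed lymph node cells (1.5×10^5/well) from mice lacking murine class II and carrying a chimeric human RA-associated class II transgene, cultured 3 days with ovalbumin at half-maximal dose plus compound (~0.1–200 uM) in serum-free HL-1. Proliferation read by 3H-thymidine incorporation over the final 16 h.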

In series [3] the target is DR1 (DRA1*0101 DRB1*0101) (Homo sapiens, UniProt P01903+P01911, A100R/D57E/F55L/F60I/F76Y/I96L/L162R/M171V/P40L/Q125E/R42F/V115G/Y59C). Briefly: Competitive binding to MHC-II protein DR1. In a few lines: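 Each MHC-II allele incubated with compound 16 hours at room temperature in duplicate; controls lacked compound, or both compound and MHC-II. Complexes captured 2 h at 4 °C, bound biotinylated peptide detected via europium-streptavidin and DELFIA enhancement, time-resolved fluorescence read at ex 340/em 613 (615) nm.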

In series [4] the target is Cathepsin D (EC 3.4.23.5 from bovine spleen) (Bos taurus, UniProt P80209).
The subject of series [5] is T-cell proliferation, DR14-LN. Particulars: for Immunsupressive assays DR14-LN (Max) % Inhibition: maximal inhibition; for IC50: read-out: Immunsupressive assays DR14-LN (IC50).
Setting [6] is: Protein binding IC50 (nM) 0101, 0101.

Regarding `CCCC[C@H](NC(=O)C1c2ccccc2CN1C(=O)[C@@H](NC(=O)[C@H](CC1CCCCC1)NC(C)=O)C1CCN(C(=N)N)CC1)C(=O)N(C)Cc1ccccc1` (single isomer, unassigned) [Compound P76-1, Ac-Cha-Gpg-Disc-Nle-N(Me)Bn], in series [1], the “Stability (Arbitrary units) Mouse 6 h” value is on record as 93 Arbitrary units and the “Stability (Arbitrary units) Mouse 24 h” value stood at 16 Arbitrary units. Moreover, in series [2], the “Immunsupressive assays DR4-LN (Max) % Inhibition” value is 103% and the IC50 (commonly the concentration that inhibits the measured activity by half) is 34 µM. For the same molecule, in series [3] (read-out: Protein binding IC50 (nM) 0101, 0101), the concentration for half-maximal inhibition (IC50) was determined as 550 nM. For the same molecule, the “Stability (Arbitrary units) Cath D 4 h” value in series [4] is on record as 104 Arbitrary units.
As to `CCCC[C@H](NC(=O)C1c2ccccc2CN1C(=O)[C@@H](NC(=O)[C@H](CC1CCCCC1)NC(C)=O)C1CCN(C(=N)N)CC1)C(=O)N(C)Cc1ccccc1` (single isomer, unassigned) [Compound P78-1], in series [1], the “Stability (Arbitrary units) Mouse 6 h” value was 93 Arbitrary units and the “Stability (Arbitrary units) Mouse 24 h” value is on record as 18 Arbitrary units. The IC50 in series [2] is 34 µM. The IC50 in series [3] (setting [6]) came out at 550 nM. In series [4], the “Stability (Arbitrary units) Cath D 4 h” value is reported as 104 Arbitrary units.
Turning to `CSCC[C@H](NC(=O)[C@@H]1Cc2ccccc2CN1C(=O)[C@H](CCCNC(=N)N)NC(=O)[C@H](CC1CCCCC1)NC(C)=O)C(N)=O` [Compound P1, Ac-Cha-Arg-Tic-Met-NH2] (Ac-[Cha]R[Tic]M-NH2), in series [1], the “Stability (Arbitrary units) Mouse 24 h” value is 5 Arbitrary units. Besides, in series [2], the “Immunsupressive assays DR4-LN (Max) % Inhibition” value is 41%; the IC50 was 64 µM and 84 µM. This molecule also showed a half-inhibitory concentration (IC50) in series [3] (setting [6]) of 260 nM. For the same molecule, in series [4], the “Stability (Arbitrary units) Cath D 4 h” value amounted to 102 Arbitrary units.
As for `CSCC[C@H](NC(=O)C1c2ccccc2CN1C(=O)[C@H](CCCNC(=N)N)NC(=O)[C@H](CC1CCCCC1)NC(C)=O)C(N)=O` (stereo partly drawn) [Compound P12-1, Ac-Cha-Arg-Disc-Met-NH2] (Ac-[Cha]R[ξDisc]M-NH2), in series [1], the “Stability (Arbitrary units) Mouse 6 h” value came out at 76 Arbitrary units and the “Stability (Arbitrary units) Mouse 24 h” value is listed as 38 Arbitrary units. Also, in series [2], the “Immunsupressive assays DR4-LN (Max) % Inhibition” value is 5% and the IC50 is greater than 200 µM. In series [3] (setting [6]), this molecule yielded an IC50 of 430 nM. The “Stability (Arbitrary units) Cath D 4 h” value in series [4] was determined as 103 Arbitrary units.
As for `CSCC[C@H](NC(=O)[C@@H]1Cc2ccccc2CN1C(=O)[C@H](CCCNC(=N)N)NC(=O)[C@H](CC1CCCCC1)NC(C)=O)C(=O)N1CC[C@H](c2ccccc2)[C@H]1C(N)=O` [Compound P31, Ac-Cha-Arg-Tic-Met-βPhPro-NH2] (Ac-[Cha]R[Tic]M[Pro(3R-Ph)]-NH2), in series [1], the “Stability (Arbitrary units) Mouse 6 h” value was 86 Arbitrary units and the “Stability (Arbitrary units) Mouse 24 h” value turned out to be 56 Arbitrary units. Besides, in series [5], the “Immunsupressive assays DR14-LN (Max) % Inhibition” value is 89% and the IC50 was 98 µM. In series [2], the “Immunsupressive assays DR4-LN (Max) % Inhibition” value came out at 64% and the half-inhibitory concentration (IC50) was found to be 18 µM. In addition, the IC50 in series [3] (setting [6]) came to 290 nM. In addition, the “Stability (Arbitrary units) Cath D 4 h” value in series [4] was found to be 95 Arbitrary units.
As for `CSCC[C@H](NC(=O)C1c2ccccc2CN1C(=O)[C@@H](NC(=O)[C@H](CC1CCCCC1)NC(C)=O)C1CCN(C(=N)N)CC1)C(=O)N1CC[C@H](c2ccccc2)[C@H]1C(=O)N[C@@H](CO)c1nc(C(=O)N(C)C)c(C(C)C)o1` (stereo partly drawn) [Compound P41-1, Ac-Cha-Gpg-Disc-Met-βPhPro-[S(oxaz)L]-NMe2] (Ac-[Cha][Gly(1-amidinopiperidin-4-yl)][ξDisc]M[Pro(3R-Ph)][X1]-NMe2), in series [1], the “Stability (Arbitrary units) Mouse 6 h” value stood at 100 Arbitrary units and the “Stability (Arbitrary units) Mouse 24 h” value is listed as 111 Arbitrary units. In addition, in series [5], the “Immunsupressive assays DR14-LN (Max) % Inhibition” value was determined as 98% and the 50% inhibitory concentration (IC50) came to 25 µM. Also, in series [2], the “Immunsupressive assays DR4-LN (Max) % Inhibition” value is listed as 96% and the IC50 was 49 µM. The same molecule returned an IC50 in series [3] (setting [6]) of 160 nM. In series [4], the “Stability (Arbitrary units) Cath D 4 h” value is on record as 103 Arbitrary units.
On to `CC(=O)N[C@@H](CC1CCCCC1)C(=O)N[C@H](C(=O)N1Cc2ccccc2C[C@H]1C(=O)N[C@@H](CC[S+](C)[O-])C(=O)N1CC[C@H](c2ccccc2)[C@H]1C(=O)N[C@@H](CO)c1nc(C(=O)N(C)C)c(C(C)C)o1)C1CCN(C(=N)N)CC1` (stereo partly drawn) [Compound P47, Ac-Cha-Gpg-Tic-Met(O)-βPhPro-[S(oxaz)L]-NMe2] (Ac-[Cha][Gly(1-amidinopiperidin-4-yl)][Tic][Met(O)][Pro(3R-Ph)][X1]-NMe2), for which, in series [1], the “Stability (Arbitrary units) Mouse 6 h” value stood at 126 Arbitrary units and the “Stability (Arbitrary units) Mouse 24 h” value turned out to be 111 Arbitrary units. In series [2], the “Immunsupressive assays DR4-LN (Max) % Inhibition” value is given as 77% and the IC50 was found to be 77 µM. In series [3] (setting [6]), the IC50 came to 330 nM. Further, the “Stability (Arbitrary units) Cath D 4 h” value in series [4] turned out to be 99 Arbitrary units.
On to `CCCC[C@H](NC(=O)[C@@H]1Cc2ccccc2CN1C(=O)[C@H](CCCNC(=N)N)NC(=O)[C@H](CC1CCCCC1)NC(C)=O)C(=O)N1CC[C@H](c2ccccc2)[C@H]1C(=O)N[C@@H](CO)c1nc(C(=O)N(C)C)c(C(C)C)o1` [Compound P51, Ac-Cha-Arg-Tic-Nle-βPhPro-[S(oxaz)L]-NMe2] (Ac-[Cha]R[Tic][Nle][Pro(3R-Ph)][X1]-NMe2), for which the “Stability (Arbitrary units) Mouse 24 h” value in series [1] was 136 Arbitrary units. Further, in series [5], the “Immunsupressive assays DR14-LN (Max) % Inhibition” value was found to be 99% and the IC50 was 52 µM. Also, in series [2], the “Immunsupressive assays DR4-LN (Max) % Inhibition” value came out at 100%; the IC50 was 38 µM and 36 µM. In series [3] (setting [6]), this molecule showed a concentration for half-maximal inhibition (IC50) of 400 nM. Besides, the “Stability (Arbitrary units) Cath D 4 h” value in series [4] was 103 Arbitrary units.
For `CCCC[C@H](NC(=O)[C@@H]1Cc2ccccc2CN1C(=O)[C@@H](NC(=O)[C@H](CC1CCCCC1)NC(C)=O)C1CCN(C(=N)N)CC1)C(=O)N1CC[C@H](c2ccccc2)[C@H]1C(=O)N[C@@H](CO)c1nc(C(=O)N(C)C)c(C(C)C)o1` [Compound P53, Ac-Cha-Gpg-Tic-Nle-βPhPro-[S(oxaz)L]-NMe2] (Ac-[Cha][Gly(1-amidinopiperidin-4-yl)][Tic][Nle][Pro(3R-Ph)][X1]-NMe2), in series [1], the “Stability (Arbitrary units) Mouse 6 h” value is listed as 117 Arbitrary units and the “Stability (Arbitrary units) Mouse 24 h” value is reported as 115 Arbitrary units. Also, in series [5], the “Immunsupressive assays DR14-LN (Max) % Inhibition” value was determined as 101% and the IC50 came to 32 µM. Further, in series [2], the “Immunsupressive assays DR4-LN (Max) % Inhibition” value is given as 100% and the IC50 was 40 µM. Further, the “immunosuppressive properties as measured by a T-cell activation assay, versus Arg equivalent” value in series [2] (dose-response curve, compared to the Arg-containing peptide) is recorded as “improved immunosuppressive properties”. Further, in series [2] (dose-response curves), the “immunosuppressive properties as measured by a T-cell activation assay” value was “immunosuppressive properties”. For the same molecule, in series [3] (setting [6]), the IC50 is 340 nM. For the same molecule, the “Stability (Arbitrary units) Cath D 4 h” value in series [4] is given as 99 Arbitrary units.
As for `CSCC[C@H](NC(=O)C1c2ccccc2CN1C(=O)[C@@H](NC(=O)[C@H](CC1CCCCC1)NC(C)=O)C1CCN(C(=N)N)CC1)C(N)=O` (stereo partly drawn) [Compound P66-1, Ac-Cha-Gpg-Disc-Met-NH2] (Ac-[Cha][Gly(1-amidinopiperidin-4-yl)][ξDisc]M-NH2), in series [1], the “Stability (Arbitrary units) Mouse 6 h” value worked out at 115 Arbitrary units and the “Stability (Arbitrary units) Mouse 24 h” value stood at 112 Arbitrary units. Moreover, in series [2], the “Immunsupressive assays DR4-LN (Max) % Inhibition” value was 20% and the IC50 was determined as 120 µM. The same molecule yielded an IC50 in series [3] (setting [6]) of 290 nM. Moreover, the “Stability (Arbitrary units) Cath D 4 h” value in series [4] turned out to be 101 Arbitrary units.
For the molecule `CCCC[C@H](NC(=O)[C@@H]1Cc2ccccc2CN1C(=O)[C@@H](NC(=O)[C@H](CC1CCCCC1)NC(C)=O)C1CCN(C(=N)N)CC1)C(=O)NCCOCCO` [Compound P70, Ac-Cha-Gpg-Tic-Nle-N(H)CH2CH2OCH2CH2OH] (Ac-[Cha][Gly(1-amidinopiperidin-4-yl)][Tic][Nle]-X3), in series [1], the “Stability (Arbitrary units) Mouse 6 h” value is listed as 105 Arbitrary units and the “Stability (Arbitrary units) Mouse 24 h” value is 82 Arbitrary units. In addition, in series [2], the “Immunsupressive assays DR4-LN (Max) % Inhibition” value worked out at 54% and the IC50 was determined as 42 µM. Also, in series [3] (setting [6]), the IC50 was 90 nM. Besides, the “Stability (Arbitrary units) Cath D 4 h” value in series [4] turned out to be 112 Arbitrary units.
Turning to `CCCC[C@H](NC(=O)[C@@H]1Cc2ccccc2CN1C(=O)[C@H](CCCNC(=N)N)NC(=O)[C@H](CC1CCCCC1)NC(C)=O)C(=O)N(C)Cc1ccccc1` [Compound P71, Ac-Cha-Arg-Tic-Nle-N(Me)Bn] (Ac-[Cha]R[Tic][Nle]-{NMe(benzyl)}), the “Stability (Arbitrary units) Mouse 6 h” value in series [1] is listed as 117 Arbitrary units. In series [5], the “Immunsupressive assays DR14-LN (Max) % Inhibition” value was 98% and 96%; the half-inhibitory concentration (IC50) was 15 µM. For the same molecule, in series [2], the “Immunsupressive assays DR4-LN (Max) % Inhibition” value is 102% and the IC50 was 19 µM. Besides, the “Stability (Arbitrary units) Cath D 4 h” value in series [4] is reported as 104 Arbitrary units.
